The source of these data is ChEMBL document CHEMBL1157539, “Thousands of chemical starting points for antimalarial lead identification” (Nature, 2010).

SMILES strings stand for the structures.

The test concerns Plasmodium falciparum. The test is described as follows: GSK_TCMDC: Inhibition of Plasmodium falciparum 3D7 in whole erythrocytes, using parasite LDH activity as an index of growth. The class given is functional, organism-based. The following applies: Plasmodium falciparum, 3D7.
Consider `CCN(CC)CCN(Cc1ccc(-c2ccc(C(F)(F)F)cc2)cc1)C(=O)Cn1c(CCc2cccc(F)c2F)nc(=O)c2cc(F)ccc21`, for which the XC50 is 826 nM.
With `O=C(NCCCCCN1CCC(c2c[nH]c3ccccc23)CC1)c1ccc(Cl)c(Cl)c1`, the XC50 turned out to be 1360 nM.
`C=CC[C@H](NC(=O)c1ccc(NS(=O)(=O)c2ccc3nc(N)[nH]c(=O)c3c2)cc1)C(=O)OCCCC`: the XC50 turned out to be 154 nM.
Turning to `CC(=O)N(C)c1cccc(C(=O)Nc2cccc(-c3ccc(-c4nc5cc(C(F)(F)F)ccc5[nH]4)cc3)c2)c1`, the XC50 worked out at 1000 nM.
`CN(CCCCCN1CCC(NC(=O)Nc2ccc(C(F)(F)F)cc2)C1)C(=O)/C=C/c1ccc(Cl)c(Cl)c1` (stereo unspecified) returned an XC50 of 771 nM.
Next, `O=C(NCCNc1ccnc(NCc2ccc(F)cc2)n1)c1cc2ccccc2s1`: 695 nM; `Cc1nn(-c2ccccc2)nc1C(=O)NC1CCN(CCNC(=O)c2ccc(Cl)c(Cl)c2)CC1`: 868 nM; `OC(CNc1cccc(Cl)c1)Cn1c2ccc(Cl)cc2c2cc(Cl)ccc21` (stereo unspecified): 958 nM.
`CCC[C@@H]([C@@H](CC1CCCCC1)C(=O)N[C@H](C(=O)Nc1nccs1)[C@@H](C)OCc1ccccc1)N(O)C=O` displayed an XC50 of 78.2 nM.
`COc1ccc(OCCCCON2C(=N)N=C(N)NC2(C)C)cc1` yielded an XC50 of 3.2 nM.
Next, `O=C(Nc1ccc(OC2CCN(Cc3ccccc3)CC2)c(Cl)c1)c1ccc(F)cc1`: 796 nM; `Fc1cccc(COc2ccc(Nc3ncnc4sc(C#CC5CCCCN5)cc34)cc2Cl)c1` (stereo unspecified): 540 nM.
Next, `Fc1ccc(NC(S)=NN=Cc2ccccn2)cc1`: 775 nM; `Cc1cccc2nc(-c3cccc(-c4cccc(NC(=O)C(C)CN(C)C)c4)c3)[nH]c12` (stereo unspecified): 413 nM; `CNCc1ccc(CN(C)c2nc(N)c3cc(OC)c(OC)cc3n2)cc1`: 1030 nM.
In the case of `Cn1c(-c2ccccc2)cc2c3c(N)nc(N)nc3ccc21`, the XC50 is 888 nM.
Next, `Cc1cccc(C)c1CNc1ccnc2cc(C#N)ccc12`: 684 nM.
As for `CC1CCCN(Cc2cc(Cl)cc(Cl)c2O)C1` (stereo unspecified), the XC50 is 933 nM.
Compound `Cc1cc(NC(=O)NCCN2CCC(NC(=O)c3ccc(C(F)(F)F)cc3)CC2)c2ccccc2n1` displayed an XC50 of 413 nM.
Take `Nc1ncc(-c2ccc(Br)cc2)c(N)n1`: the XC50 amounted to 920 nM.
With `COCCCNC(=N)c1ccc(NC(=O)c2ccc(C(=O)Nc3ccc(C(=N)NCCCOC)cc3)cc2)cc1` the figure was 45 nM; with `N#Cc1ccc(N(CCCO)Cc2ccccc2C(F)(F)F)cc1C(F)(F)F`, 978 nM; with `CCN(CC)C(=O)c1cnc(-c2ccccc2)nc1Oc1cccc(Cl)c1`, 1160 nM.
Next, `Cc1nn(-c2ccccc2)c2c1C(c1ccc(C(C)C)cc1)N1C(=N2)N(Cc2ccccc2)c2ccccc21` (stereo unspecified): 776 nM; `CC1(C)Cc2c(oc3ncn(CCn4cnc5oc6c(c5c4=N)CC(C)(C)SC6)c(=N)c23)CS1`: 719 nM; `Cc1[nH]c2ccccc2c1C1=CCN(CCCCCC23CCCc4cccc(c42)NC3=O)CC1` (stereo unspecified): 253 nM.
As for `Cc1cccc(CNc2ncc(C)c(NCCC(=O)Nc3ccccc3)n2)c1`, the XC50 was 1150 nM.
With `O=C(Nc1cccc(CN2CCCN(Cc3cccc(Cl)c3)CC2)c1)c1ccc(-c2ccccc2)cc1` the figure was 1230 nM; with `O=c1nc(C=Cc2ccc(Br)cc2)oc2ccccc12`, 1050 nM; with `CCCCCc1cc(O)c2c3c(c(=O)oc2c1)CN(C)CC3`, 121 nM.
In the case of `CC(=O)N(Cc1ccccc1-c1ccc(CNCCc2ccccc2)cc1)C1CCN(Cc2ccccc2)CC1`, the XC50 was found to be 475 nM.
Next, `COc1ccc(-c2nccc(NC(=N)NCc3ccccc3)n2)cc1`: 671 nM; `NC(=O)c1ccc(-c2ccc3ccnc(N)c3c2)cc1`: 419 nM.
Turning to `CN1CCN(c2ccc(Nc3ncc(C#N)c(Nc4ccccc4C(N)=O)n3)cc2)CC1`, the XC50 was determined as 39.4 nM.
With `O=C(NCCN1CCOCC1)c1ccc(-c2ccc(CNCCCc3ccccc3)cc2)nc1` the figure was 782 nM; with `CCC[C@@H]([C@@H](CC1CCCCC1)C(=O)NC(C(=O)Nc1nccs1)C(CC)c1ccccc1)N(O)C=O` (stereo partly specified), 689 nM; with `COc1ccc2nccc([C@@H](O)CN3CCC(NCc4cc5ccccc5[nH]4)CC3)c2c1`, 1100 nM.
Next, `CC[C@]1(C)C[C@@H](NC(=O)NC(=O)c2ccc(OC)cc2)[C@]2(C)[C@H](C)CC[C@]3(CCC(=O)[C@H]32)[C@@H](C)[C@@H]1OC(=O)NC(=O)c1ccc(OC)cc1`: 987 nM; `COc1ccc(F)cc1-c1ccc(C(=O)N2CCCN(c3ccc(C#N)cn3)CC2)cc1`: 112 nM.
`CC1(C)N=C(N)N=C(N)N1c1ccc(Br)cc1` registered an XC50 of 9.2 nM.
`CC(=O)c1ccccc1C(=O)N1CCOc2ccc(C(O)C(c3ccccc3)c3ccccc3)cc2C1` (stereo unspecified) displayed an XC50 of 905 nM.
Next, `Cc1ccn2c(C(=O)N3CCN(c4cccc5c4nc(-c4ccoc4)n5Cc4ccccn4)CC3)c(C)nc2c1`: 203 nM; `Cc1nc2ccc([N+](=O)[O-])cc2c(=O)n1OCc1ccccc1`: 208 nM; `CCN(CC)/C(=N/C(=N)NCc1ccc(Cl)cc1)NCCCCCCN/C(=N\C(=N)NCc1ccc(Cl)cc1)N(CC)CC`: 231 nM.
Next, `CCN(CC)c1cc(C)c2cc(NC(=O)c3cc(=O)c4ccccc4o3)ccc2n1`: 224 nM; `COc1c(C2=CCN(CCCCNC(=O)c3ccc(-c4ccc(C#N)cc4)cc3)CC2)c(C)cc2c1C(C)(C)CCC2(C)C`: 947 nM.
With `Nc1cccc(CNCc2ccc(-c3cccc(-c4nc5ccccc5[nH]4)c3)cc2)c1` the figure was 710 nM; with `O=C(C(=O)c1ccc(Nc2ccnc3cc(-c4ccccn4)ccc23)cc1)c1ccccc1`, 966 nM; with `Cc1cc(O)c(CNC2CCCCC2)cc1C`, 1050 nM.
`Cc1ccc(O)cc1Nc1ccnc2cc(-c3ccncc3)ccc12` had an XC50 of 723 nM.
With `COc1ccc(CCNCCCCCCNCCc2ccc(Cl)cc2)c(Cl)c1OC` the figure was 825 nM.
Next, `COc1ccc(-c2ccccc2CNc2nc(NCCc3ccc(O)cc3)nc(N3CCNCC3)n2)cc1`: 1080 nM; `COCCNCc1cccc(-c2ccccc2CN(C(=O)c2ccc3c(c2)OCO3)c2ccc(OC)cc2)c1`: 1110 nM; `Cn1nc(C(F)(F)F)cc1-c1ccc(C(=O)Nc2ccc3c(c2)CNCC3(C)C)s1`: 1010 nM.
Next, `COc1ccc(CCn2c(=N)c(C(=O)NCc3ccccc3)cc3c(=O)n4cccc(C)c4nc32)cc1`: 339 nM.
Consider `CN(C)CCNCc1ccc(-c2ccc(-c3nc4cc(F)ccc4[nH]3)cc2)cc1`, for which the XC50 amounted to 474 nM.
With `CC1CN(Cc2ccc(-c3ccc(-c4nc5cc(F)ccc5[nH]4)cc3)cc2)CC(C)O1` (stereo unspecified) the figure was 564 nM; with `CC(C)(NCc1ccc(OC(F)(F)F)cc1)c1nc(-c2ccc(Cl)c(O)c2)c(-c2ccncc2)[nH]1`, 940 nM.
`Cc1cccc(CN2CCC(CNC(=O)c3cc4c(-c5ccccc5F)nn(C)c4s3)CC2)c1` gave an XC50 of 1090 nM.
With `COc1ccc(CC2(c3ccc(F)cc3)N=C(N)N(CCCc3ccc4c(c3)OCO4)C2=O)cc1` (stereo unspecified) the figure was 739 nM.
For the compound `COc1c(C2CCN(CCCCNC(=O)c3ccc(-c4ccc(C(F)(F)F)cc4)c(C(=O)OC(C)C)c3)CC2)ccc2c1CCCC2`, the XC50 was 858 nM.
Turning to `CCC(Cc1ccccc1)c1cc(O)c(Cc2ccc(-c3ccccc3)cc2)c(=O)o1` (stereo unspecified), the XC50 stood at 971 nM.
Regarding `CC(=O)Nc1cccc(C(=O)Nc2cccc(-c3ccc(-c4nc5cccc(C)c5[nH]4)cc3)c2)c1`, the XC50 came out at 908 nM.
The compound `CCC[C@@H]([C@@H](CC1CCCCC1)C(=O)N[C@H](C(=O)Nc1nccs1)C(C)(C)SCCNC(=O)OCc1ccccn1)N(O)C=O` displayed an XC50 of 162 nM.
With `CCn1cc(C=C2Oc3c(ccc(O)c3CN3CCCCC3C)C2=O)c2ccccc21` (stereo unspecified) the figure was 1020 nM; with `CS(=O)(=O)CCNCc1nc(-c2ccc3c(Nc4ccc(F)c(O)c4)ccnc3c2)cs1`, 820 nM.
With `COc1ccc(-c2ccc(NC(=O)c3ccc(C#N)cc3)c(F)c2)cc1CN(C)CCN(C)C` the figure was 974 nM; with `CCN(CC)CCNc1nccc(N(C)c2ccc(NC(=O)Nc3cc(C(F)(F)F)ccc3F)cc2)n1`, 549 nM.
Regarding `O=C(Nc1ccc(Cl)cc1)Nc1ccc2c(c1)N1CCN=C1S2`, the XC50 was determined as 592 nM.
In turn, `COc1ccc(C(=O)CCc2ccc(O)cc2)cc1` had an XC50 of 483 nM.
The compound `S=C(NCCc1ccccc1)Nc1ccc2ncsc2c1` gave an XC50 of 1400 nM.
Next, `Cc1cc2nc(-c3ccc(/C=C/C(=O)NC4CCCCC4)cc3)[nH]c2cc1C`: 1010 nM.
For the compound `COc1ccc2nccc([C@@H](O)CN3CCC(NC(=O)C(=O)c4c[nH]c5c(C)cccc45)CC3)c2c1`, the XC50 worked out at 307 nM.
As for `CC(=O)Nc1ncc(C(=O)Nc2cccc(-c3cccc(-c4nc5ccccc5[nH]4)c3)c2)s1`, the XC50 was found to be 814 nM.
Next, `CCn1cnc2c(N3CCCS3(=O)=O)cc(C(=O)N[C@@H](Cc3ccccc3)[C@H](O)CNC(C)(C)c3cccc(C(F)(F)F)c3)cc21`: 227 nM.
Next, `O=C(Nc1ccc(Cl)cc1)Nc1cccc(-c2cccc(-c3nc4cc(F)ccc4[nH]3)c2)c1`: 220 nM; `O=C(CSc1nc(-c2ccccc2Cl)ns1)Nc1cccc(F)c1`: 1110 nM; `COc1ccc(Nc2nc(NCc3cccc(NS(C)(=O)=O)c3)cc(-c3ccc(OC)cc3)n2)cc1`: 1220 nM.
With `O=C(Nc1ccc(Oc2ccccc2)cc1)N1CCC(CN2CCC(c3c[nH]c4ccccc34)CC2)CC1` the figure was 606 nM.
Compound `COc1ccc(CN2CCC(NCc3ccc(C(F)(F)F)cc3)CC2)cc1` registered an XC50 of 916 nM.
Consider `O=C(Nc1ccc(SC(F)(F)F)cc1)Nc1ccc(Cl)c(Cl)c1`, for which the XC50 was 909 nM.
In turn, `COc1ccc2nc(-c3ccc(C(=O)NCCCN4CCN(c5cc(Cl)ccc5OC)CC4)cc3OC)[nH]c2c1` returned an XC50 of 872 nM.
Next, `CN1CCCC1CCNCc1cccc(-c2cnc(N3CCCC(C)(C)C3)nc2)c1` (stereo unspecified): 927 nM.
Next, `COc1ccc(-c2cccc(NC(=O)c3cccc(C#N)c3)c2)cc1CN1CCCN(C)CC1`: 190 nM.
Next, `N#Cc1cccc(CN2CCCN(c3ccc(NC(=O)c4cccs4)cc3)CC2)c1`: 809 nM; `CC1(C)N=C(N)N=C(N)N1c1ccc(Cl)cc1`: 31.1 nM.
